Test results: patent US20110039763A1, “TARGETED ANTIMICROBIAL MOIETIES” (C3 JIAN, INC., priority 2009, published 2011)
Entries after “also recorded” stand apart in the source; their conditions may differ. Square brackets hold non-standard residues; d marks the D form. Ends that are not written are not given here. dOrn = NCCC[C@@H](N)C(=O)O

System: microorganisms
Test: Targeting peptide binding to target microorganisms (Tables 3, 10, 12)
Details: for Target(s): microorganism(s) the targeting peptide binds, preferably 1x PBS
[1] = binding in aqueous buffers that varied with peptide solubility
[2] = binding in aqueous buffers varied with peptide solubility

| Substance | Target(s) [1] | also measured |
| --- | --- | --- |
| 1T-198 (MPVSKKRYMLSSAYATALGICYGQVATDEKESEITAIPDLLDYLSVEEYLL; Peptide with targeting and/or antimicrobial activity) | P. gingivalis; also recorded: S. epidermidis; also recorded: S. gordonii; also recorded: S. mitis; also recorded: S. mutans; also recorded: S. oralis; also recorded: S. sanguinis | – |
| 1T-199 (RAGRIKKLSQKEAEPFEN; Peptide with targeting and/or antimicrobial activity) | S. sanguinis | – |
| 1T-201 (KRKHENVIVAEEMRVIKN; Peptide with targeting and/or antimicrobial activity) | S. sanguinis | – |
| 1T-207 (SPLEKYGTGSMTALTFLLGCCLLVLSKKSR; Peptide with targeting and/or antimicrobial activity) | F. nucleatum; also recorded: S. sanguinis | – |
| 1T-215 (VCFKDISVFLSPFRGQEVLFCGKAKHSLIYVIGT; Peptide with targeting and/or antimicrobial activity) | S. sanguinis | – |
| 1T-216 (FFLNVIAIRIPHF; Peptide with targeting and/or antimicrobial activity) | S. sanguinis | – |
| 1T-217 (MLSNVLSRSVVSPNVDIPNSMVILSPLLISISNYH; Peptide with targeting and/or antimicrobial activity) | F. nucleatum; also recorded: S. sanguinis | – |
| 1T-218 (KLIFAALGLVFLLIGLRDSRSK; Peptide with targeting and/or antimicrobial activity) | F. nucleatum; also recorded: S. sanguinis | – |
| 1T-219 (RNINVSATFITEKSLV; Peptide with targeting and/or antimicrobial activity) | S. sanguinis | – |
| 1T-222 (RIEASLISAIMFSMFNAIVKFLQK; Peptide with targeting and/or antimicrobial activity) | F. nucleatum; also recorded: S. sanguinis | – |
| 1T-237 (EDPVPNHFTLRRNKKEKPSKS; Peptide with targeting and/or antimicrobial activity) | S. sanguinis | – |
| 1T-239 (ADDLLNKRLTDLIMENAETVKTIDLDNSD; Peptide with targeting and/or antimicrobial activity) | A. naeslundii; also recorded: S. gordonii; also recorded: S. mitis; also recorded: S. mutans; also recorded: S. oralis; also recorded: S. sanguinis | – |
| 1T-242 (KQVQNTTLIICGTVLLGILFKSYLKSQKSV; Peptide with targeting and/or antimicrobial activity) | F. nucleatum; also recorded: S. sanguinis | – |
| 1T-248 (IGGALNSCG; Peptide with targeting and/or antimicrobial activity) | S. sanguinis | – |
| 1T-249 (VFSVLKHTTWPTRKQSWHDFISILEYSAFFALVIFIFDKLLTLGLAELLKRF; Peptide with targeting and/or antimicrobial activity) | F. nucleatum; also recorded: S. sanguinis | – |
| 1T-250 (LVQGDTILIENHVGTPVKDDGKDCLIIREADVLAVVND; Peptide with targeting and/or antimicrobial activity) | S. mitis; also recorded: S. mutans; also recorded: S. oralis | – |
| 1T-252 (MKKNLKRFYALVLGFIIGCLFVSILIFIGY; Peptide with targeting and/or antimicrobial activity) | F. nucleatum; also recorded: S. sanguinis | – |
| 1T-256 (KGKSLMPLLKQINQWGKLYL; Peptide with targeting and/or antimicrobial activity) | S. sanguinis | – |
| 1T-258 (TINIDDKVLDYLKKINSKAITIDLIGCAS; Peptide with targeting and/or antimicrobial activity) | A. naeslundii; also recorded: F. nucleatum; also recorded: P. gingivalis; also recorded: T. denticola; also recorded: S. mitis; also recorded: S. mutans; also recorded: S. oralis | – |
| 1T-259 (EKLKKILLKLAVCGKAWYTL; Peptide with targeting and/or antimicrobial activity) | F. nucleatum; also recorded: P. gingivalis; also recorded: T. denticola; also recorded: S. mitis; also recorded: S. mutans; also recorded: S. oralis; also recorded: S. sanguinis | – |
| 1T-260 (NILYFIHDENQWEPQKAEIFRGSIKHCAWLSS; Peptide with targeting and/or antimicrobial activity) | A. naeslundii; also recorded: P. gingivalis; also recorded: S. epidermidis; also recorded: S. gordonii; also recorded: S. mitis; also recorded: S. mutans; also recorded: S. oralis; also recorded: S. sanguinis | – |
| 1T-261 (SFEKNKIENNLKIAQAYIYIKPKPRICQA; Peptide with targeting and/or antimicrobial activity) | F. nucleatum; also recorded: S. mutans; also recorded: S. oralis; also recorded: S. sanguinis | – |
| 1T-264 (LEGKFYMAEDFDKTPECFKDYV; Peptide with targeting and/or antimicrobial activity) | S. sanguinis | – |
| 1T-266 (RAGTWLVVDEIR; Peptide with targeting and/or antimicrobial activity) | S. sanguinis | – |

| Substance | Target(s) [1] | also measured |
| --- | --- | --- |
| 1T-267 (RIKEERKNRSYKFFIWRLFDEKTGFI; Peptide with targeting and/or antimicrobial activity) | A. naeslundii; also recorded: F. nucleatum; also recorded: P. gingivalis; also recorded: T. denticola; also recorded: S. mitis; also recorded: S. mutans; also recorded: S. oralis; also recorded: S. sanguinis | – |
| 1T-268 (PITPKKEKCGLGTYAPKNPVFSKSRV; Peptide with targeting and/or antimicrobial activity) | F. nucleatum; also recorded: S. mutans; also recorded: S. oralis; also recorded: S. sanguinis | – |
| 1T-269 (PLYVAAVEKINTAKKH; Peptide with targeting and/or antimicrobial activity) | F. nucleatum; also recorded: S. mutans; also recorded: S. oralis; also recorded: S. sanguinis | – |
| 1T-270 (VHEFDIQKILQNR; Peptide with targeting and/or antimicrobial activity) | F. nucleatum; also recorded: S. mutans; also recorded: S. oralis; also recorded: S. sanguinis | – |
| 1T-272 (QLAPIDKQLKAVKKIAFYESESTAAKAVTVA; Peptide with targeting and/or antimicrobial activity) | F. nucleatum; also recorded: S. mutans; also recorded: S. oralis; also recorded: S. sanguinis | – |
| 1T-273 (YNEPNYKWLESYKIYKQRCEDRTGMYYTEET; Peptide with targeting and/or antimicrobial activity) | F. nucleatum; also recorded: P. gingivalis; also recorded: T. denticola; also recorded: S. mitis; also recorded: S. mutans; also recorded: S. oralis | – |
| 1T-274 (ETTTEINAIKLHRIKQRSPQGTRRVN; Peptide with targeting and/or antimicrobial activity) | F. nucleatum; also recorded: S. mutans; also recorded: S. oralis; also recorded: S. sanguinis | – |
| 1T-282 (ISLVFPAYT; Peptide with targeting and/or antimicrobial activity) | F. nucleatum; also recorded: P. gingivalis; also recorded: S. gordonii; also recorded: S. mitis; also recorded: S. mutans; also recorded: S. oralis; also recorded: S. salivarious; also recorded: S. sanguinis | – |
| 1T-286 (LGFFNNKADLVKADTERDNRMSSLKIKDL; Peptide with targeting and/or antimicrobial activity) | S. sanguinis | – |
| 1T-287 (KGYPLPFQYRLNNH; Peptide with targeting and/or antimicrobial activity) | P. gingivalis; also recorded: T. denticola; also recorded: S. gordonii; also recorded: S. mitis; also recorded: S. mutans; also recorded: S. oralis; also recorded: S. salivarious; also recorded: S. sanguinis | – |
| 1T-288 (RWVGGEPSADIYLSAKDTKT; Peptide with targeting and/or antimicrobial activity) | F. nucleatum; also recorded: S. gordonii; also recorded: S. salivarious; also recorded: S. sanguinis | – |
| 1T-289 (EPSADIYLSAKDTKT; Peptide with targeting and/or antimicrobial activity) | F. nucleatum; also recorded: P. gingivalis; also recorded: S. gordonii; also recorded: S. mitis; also recorded: S. mutans; also recorded: S. oralis; also recorded: S. sanguinis | – |
| 1T-291 (DMKIIKLYIKILSFLFIKYCNKKLNSVKLKA; Peptide with targeting and/or antimicrobial activity) | A. naeslundii; also recorded: F. nucleatum; also recorded: P. gingivalis; also recorded: T. denticola; also recorded: S. mitis; also recorded: S. mutans; also recorded: S. oralis | – |
| 1T-294 (YDKIADGVFKIGKRGVL; Peptide with targeting and/or antimicrobial activity) | T. denticola | – |
| 1T-295 (KYKLKKIIL; Peptide with targeting and/or antimicrobial activity) | S. mitis; also recorded: S. salivarious; also recorded: S. sanguinis | – |
| 1T-297 (RSLRLNNALTKLPKLWYNRIKEAFYAYNDYDK; Peptide with targeting and/or antimicrobial activity) | A. naeslundii; also recorded: F. nucleatum; also recorded: T. denticola; also recorded: S. mitis; also recorded: S. mutans; also recorded: S. oralis | – |
| 1T-301 (SKLPRVLDASLKL; Peptide with targeting and/or antimicrobial activity) | F. nucleatum; also recorded: S. gordonii; also recorded: S. sanguinis | – |
| 1T-304 (STAGEASRRTASEASRRTAAKLRG; Peptide with targeting and/or antimicrobial activity) | P. gingivalis | – |
| AIEGVIKKGACFKLLRHEMF [PF-167] | – | Target(s) [2]: S. epidermidis and E. coli and C. albicans and MRSA and C. jeikeium and C. jejuni |
| CHA0 (D[dOrn]KTAA[dOrn]K; not fully specified (bridges)) | P. fluorescens | – |
| DAANEA-GGG [BL-1] | – | bacterial binding (data not shown): no bacterial binding |
| HIKETR (Peptide with targeting and/or antimicrobial activity) [PF-222] | – | Target(s) [2]: S. epidermidis |
| MKKLVAALAVIVILTGCVYDPVNYDKIHDQEFQDHLRQNG [PF-252] | – | Target(s) [2]: S. mutans |
| MLTSRKKRLKKIVEEQNKKDESI [PF-336] | – | Target(s) [2]: S. mutans; also recorded: E. coli |
